# Reference: US20200405697A1, “Antitumor Agent” (Taiho Pharmaceutical Co., Ltd, priority 2017, published 2020)
# Biological target: T1, human RNR (histidine tagged human M1 and human M2 proteins) (Homo sapiens, UniProt P23921)
# T1 construct: made in house; host or cells: Escherichia coli
# T1 sequence (P23921 1-792): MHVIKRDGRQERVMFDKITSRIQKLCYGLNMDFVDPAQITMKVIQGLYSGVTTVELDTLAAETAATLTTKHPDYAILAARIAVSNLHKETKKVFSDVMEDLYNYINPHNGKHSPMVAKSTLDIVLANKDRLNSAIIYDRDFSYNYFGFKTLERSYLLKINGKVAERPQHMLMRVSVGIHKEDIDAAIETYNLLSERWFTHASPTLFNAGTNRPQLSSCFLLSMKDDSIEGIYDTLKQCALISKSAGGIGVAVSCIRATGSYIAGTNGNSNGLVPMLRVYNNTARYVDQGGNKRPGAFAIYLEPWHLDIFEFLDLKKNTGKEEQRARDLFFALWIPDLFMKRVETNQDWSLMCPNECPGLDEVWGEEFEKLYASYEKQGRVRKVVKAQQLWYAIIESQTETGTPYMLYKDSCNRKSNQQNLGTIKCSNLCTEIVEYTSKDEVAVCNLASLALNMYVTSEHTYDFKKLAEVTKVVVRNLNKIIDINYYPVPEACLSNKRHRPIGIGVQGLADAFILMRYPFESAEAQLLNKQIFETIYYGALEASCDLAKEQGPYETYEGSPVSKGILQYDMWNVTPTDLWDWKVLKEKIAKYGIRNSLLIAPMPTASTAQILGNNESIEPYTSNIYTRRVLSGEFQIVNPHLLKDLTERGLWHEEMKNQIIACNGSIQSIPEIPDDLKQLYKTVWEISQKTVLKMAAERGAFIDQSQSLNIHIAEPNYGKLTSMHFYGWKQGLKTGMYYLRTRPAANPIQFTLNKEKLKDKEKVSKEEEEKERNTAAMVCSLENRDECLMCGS
# Assay: Human RNR inhibition effect (dCDP formation from CDP)
# Assay type: biochemical
# Conditions: 10 μM CDP, 37° C. for 30 minutes, read-out: RNR inhibitory activity IC50
# Outline: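 His-tagged human M1 (isoform 1) and N-terminal 59-aa-truncated M2 (isoform 2), E. coli-expressed, Ni-purified, preincubated 20 min with compound (1% DMSO). Reaction with 10 μM CDP, 2 mM ATP, 0.24 mM NADPH, 6 mM DTT, 4 mM Mg acetate, 100 mM KCl, 50 mM HEPES pH 7.2, 30 min at 37° C. dCDP formed quantified by reverse-phase HPLC after heat stop.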
row,SMILES,IC50
1,"COc1cc(Cl)ccc1S(=O)(=O)N[C@H](c1n[nH]c(=O)o1)[C@H](C)c1c(F)ccc2ccccc12 [Example 76, 4-chloro-N-((1S,2R)-2-(2-fluoronaphthalen-1-yl)-1-(5-oxo-4,5-dihydro-1,3,4-oxadiazol-2-yl)propyl)-2-methoxybenzenesulfonamide]",0.2 µM
2,"Cc1cccc2cccc([C@@H](C)[C@H](NS(=O)(=O)c3ccc(Cl)c4c3OCCC4(F)F)c3n[nH]c(=O)o3)c12 [Example 81, 5-chloro-4,4-difluoro-N-((1S,2R)-2-(8-methylnaphthalen-1-yl)-1-(5-oxo-4,5-dihydro-1,3,4-oxadiazol-2-yl)propyl)chroman-8-sulfonamide]",0.28 µM
3,"COc1cc(Cl)ccc1S(=O)(=O)N[C@H](c1n[nH]c(=O)o1)[C@H](C)c1c(F)ccc(C)c1C [Example 83, 4-chloro-N-((1S,2R)-2-(6-fluoro-2,3-dimethylphenyl)-1-(5-oxo-4,5-dihydro-1,3,4-oxadiazol-2-yl)propyl)-2-methoxybenzenesulfonamide]",0.14 µM
4,"Cc1ccc(F)c([C@@H](C)[C@H](NS(=O)(=O)c2ccc(Cl)cc2C#N)c2n[nH]c(=O)o2)c1C [Example 84, 4-chloro-2-cyano-N-((1S,2R)-2-(6-fluoro-2,3-dimethylphenyl)-1-(5-oxo-4,5-dihydro-1,3,4-oxadiazol-2-yl)propyl)benzenesulfonamide]",0.36 µM
5,"COc1cc(Cl)ccc1S(=O)(=O)N[C@H](c1n[nH]c(=O)o1)[C@H](C)c1cccc(C)c1C(C)C [Example 85, 4-chloro-N-((1S,2R)-2-(2-isopropyl-3-methylphenyl)-1-(5-oxo-4,5-dihydro-1,3,4-oxadiazol-2-yl)propyl)-2-methoxybenzenesulfonamide]",0.84 µM
6,"CCc1cccc([C@@H](C)[C@H](NS(=O)(=O)c2ccc(Cl)cc2OC)c2n[nH]c(=O)o2)c1C [Example 86, 4-chloro-N-((1S,2R)-2-(3-ethyl-2-methylphenyl)-1-(5-oxo-4,5-dihydro-1,3,4-oxadiazol-2-yl)propyl)-2-methoxybenzenesulfonamide]",0.4 µM
7,"CCc1c(C)cccc1[C@@H](C)[C@H](NS(=O)(=O)c1ccc(Cl)cc1OC)c1n[nH]c(=O)o1 [Example 87, 4-chloro-N-((1S,2R)-2-(2-ethyl-3-methylphenyl)-1-(5-oxo-4,5-dihydro-1,3,4-oxadiazol-2-yl)propyl)-2-methoxybenzenesulfonamide]",0.84 µM
8,"Cc1ccc(F)c([C@@H](C)[C@H](NS(=O)(=O)c2ccc(Cl)c3c2OCCC3=O)c2n[nH]c(=O)o2)c1C [Example 88, 5-chloro-N-((1S,2R)-2-(6-fluoro-2,3-dimethylphenyl)-1-(5-oxo-4,5-dihydro-1,3,4-oxadiazol-2-yl)propyl)-4-oxochroman-8-sulfonamide]",0.15 µM
9,"COc1cc(Cl)ccc1S(=O)(=O)N[C@H](c1n[nH]c(=O)o1)C(C)c1c(F)c(F)cc(C)c1Br (stereo partly drawn) [Example 89, N-((1S)-2-(2-bromo-5,6-difluoro-3-methylphenyl)-1-(5-oxo-4,5-dihydro-1,3,4-oxadiazol-2-yl)propyl)-4-chloro-2-methoxybenzenesulfonamide]",0.42 µM
10,"COc1cc(Cl)ccc1S(=O)(=O)N[C@H](c1n[nH]c(=O)o1)[C@H](C)c1c(C)c(C)cc(F)c1F [Example 90, 4-chloro-N-((1S,2R)-2-(2,3-difluoro-5,6-dimethylphenyl)-1-(5-oxo-4,5-dihydro-1,3,4-oxadiazol-2-yl)propyl)-2-methoxybenzenesulfonamide]",0.16 µM
11,"Cc1ccc(F)c([C@@H](C)[C@H](NS(=O)(=O)c2ccc(Cl)cc2-c2ccno2)c2n[nH]c(=O)o2)c1C [Example 91, 4-chloro-N-((1S,2R)-2-(6-fluoro-2,3-dimethylphenyl)-1-(5-oxo-4,5-dihydro-1,3,4-oxadiazol-2-yl)propyl)-2-(isoxazol-5-yl)benzenesulfonamide]",0.23 µM

# Second part, the compound after the results:
row,IC50,SMILES
1,0.2 µM,"Cc1ccc(F)c([C@@H](C)[C@H](NS(=O)(=O)c2ccc(Br)cc2C#N)c2n[nH]c(=O)o2)c1C [Example 92, 4-bromo-2-cyano-N-((1S,2R)-2-(6-fluoro-2,3-dimethylphenyl)-1-(5-oxo-4,5-dihydro-1,3,4-oxadiazol-2-yl)propyl)benzenesulfonamide]"
2,0.1 µM,"Cc1ccc(F)c([C@@H](C)[C@H](NS(=O)(=O)c2ccc(Cl)c3c2OCC(=O)N3C)c2n[nH]c(=O)o2)c1C [Example 93, 5-chloro-N-((1S,2R)-2-(6-fluoro-2,3-dimethylphenyl)-1-(5-oxo-4,5-dihydro-1,3,4-oxadiazol-2-yl)propyl)-4-methyl-3-oxo-3,4-dihydro-2H-benzo[b][1,4]oxazine-8-sulfonamide]"
3,0.11 µM,"CCN1CCOc2c(S(=O)(=O)N[C@H](c3n[nH]c(=O)o3)[C@H](C)c3c(F)ccc(C)c3C)ccc(Cl)c21 [Example 94, 5-chloro-4-ethyl-N-((1S,2R)-2-(6-fluoro-2,3-dimethylphenyl)-1-(5-oxo4,5-dihydro-1,3,4-oxadiazol-2-yl)propyl)-3,4-dihydro-2H-benzo[b][1,4]oxazine-8-sulfonamide]"
4,0.1 µM,"CCc1ccc(F)c([C@@H](C)[C@H](NS(=O)(=O)c2ccc(Br)cc2C(N)=O)c2n[nH]c(=O)o2)c1C [Example 96, 5-bromo-2-(N-((1S,2R)-2-(3-ethyl-6-fluoro-2-methylphenyl)-1-(5-oxo-4,5-dihydro-1,3,4-oxadiazol-2-yl)propyl)sulfamoyl)benzamide]"
5,0.24 µM,"Cc1ccc(F)c([C@@H](C)[C@H](NS(=O)(=O)c2cccc3c2OC(C)(C)CC3=O)c2n[nH]c(=O)o2)c1C [Example 97, N-((1S,2R)-2-(6-fluoro-2,3-dimethylphenyl)-1-(5-oxo-4,5-dihydro-1,3,4-oxadiazol-2-yl)propyl)-2,2-dimethyl-4-oxochroman-8-sulfonamide]"
6,0.64 µM,"Cc1ccc(F)c([C@@H](C)[C@H](NS(=O)(=O)c2ccccc2C#N)c2n[nH]c(=O)o2)c1C [Example 98, 2-cyano-N-((1S,2R)-2-(6-fluoro-2,3-dimethylphenyl)-1-(5-oxo-4,5-dihydro-1,3,4-oxadiazol-2-yl)propyl)benzenesulfonamide]"
7,0.29 µM,"Cc1ccc(F)c([C@@H](C)[C@H](NS(=O)(=O)c2cccc3c2OCCN3C(=O)C2CC2)c2n[nH]c(=O)o2)c1C [Example 99, 4-(cyclopropanecarbonyl)-N-((1S,2R)-2-(6-fluoro-2,3-dimethylphenyl)-1-(5-oxo-4,5-dihydro-1,3,4-oxadiazol-2-yl)propyl)-3,4-dihydro-2H-benzo[b][1,4]oxazine-8-sulfonamide]"
8,0.3 µM,"CC(=O)OC1(C)CCOc2c(S(=O)(=O)N[C@H](c3n[nH]c(=O)o3)[C@H](C)c3c(F)ccc(Cl)c3C)ccc(Cl)c21 (stereo partly drawn) [Example 100, 5-chloro-8-(N-((1S,2R)-2-(3-chloro-6-fluoro-2-methylphenyl)-1-(5-oxo-4,5-dihydro-1,3,4-oxadiazol-2-yl)propyl)sulfamoyl)-4-methylchroman-4-yl acetate]"
9,0.13 µM,"Cc1ccc(F)c([C@@H](C)[C@H](NS(=O)(=O)c2ccc(Cl)c3c2OCC(=O)N3CC(F)F)c2n[nH]c(=O)o2)c1C [Example 101, 5-chloro-4-(2,2-difluoroethyl)-N-((1S,2R)-2-(6-fluoro-2,3-dimethylphenyl)-1-(5-oxo-4,5-dihydro-1,3,4-oxadiazol-2-yl)propyl)-3-oxo-3,4-dihydro-2H-benzo[b][1,4]oxazine-8-sulfonamide]"
10,0.14 µM,"Cc1ccc(F)c([C@@H](C)[C@H](NS(=O)(=O)c2ccc(Cl)c3c2OCCN3CC(F)F)c2n[nH]c(=O)o2)c1C [Example 102, 5-chloro-4-(2,2-difluoroethyl)-N-((1S,2R)-2-(6-fluoro-2,3-dimethylphenyl)-1-(5-oxo-4,5-dihydro-2,3,4-oxadiazol-2-yl)propyl)-3,4-dihydro-2H-benzo[b][1,4]oxazine-8-sulfonamide]"
11,0.41 µM,"COC(=O)c1cc(Cl)ccc1S(=O)(=O)N[C@H](c1n[nH]c(=O)o1)[C@H](C)c1c(F)ccc(C)c1C [Example 103, methyl 5-chloro-2-(N-((1S,2R)-2-(6-fluoro-2,3-dimethylphenyl)-1-(5-oxo-4,5-dihydro-1,3,4-oxadiazol-2-yl)propyl)sulfamoyl)benzoate]"
12,0.84 µM,"COc1cc(Cl)ccc1S(=O)(=O)N[C@H](c1n[nH]c(=O)o1)[C@H](C)c1c(F)ccc(C#N)c1C [Example 104, 4-chloro-N-((1S,2R)-2-(3-cyano-6-fluoro-2-methylphenyl)-1-(5-oxo-4,5-dihydro-1,3,4-oxadiazol-2-yl)propyl)-2-methoxybenzenesulfonamide]"
